Laboratory results published in ChEMBL document CHEMBL5291721, “A preclinical secondary pharmacology resource illuminates target-adverse drug reaction associations of marketed drugs” (Nat Commun, 2023).

How the values were obtained:
[1] = target: Sodium-dependent noradrenaline transporter (Homo sapiens, UniProt P23975)
Cannabinoid receptor 1 = Cannabinoid receptor 1 (Homo sapiens, UniProt P21554)
Histamine H3 receptor = Histamine H3 receptor (Homo sapiens, UniProt Q9Y5N1)
[2] = target: T1, 5-hydroxytryptamine receptor 1A (Homo sapiens, UniProt P08908); type: functional, cell-based
T1 sequence (P08908 whole entry): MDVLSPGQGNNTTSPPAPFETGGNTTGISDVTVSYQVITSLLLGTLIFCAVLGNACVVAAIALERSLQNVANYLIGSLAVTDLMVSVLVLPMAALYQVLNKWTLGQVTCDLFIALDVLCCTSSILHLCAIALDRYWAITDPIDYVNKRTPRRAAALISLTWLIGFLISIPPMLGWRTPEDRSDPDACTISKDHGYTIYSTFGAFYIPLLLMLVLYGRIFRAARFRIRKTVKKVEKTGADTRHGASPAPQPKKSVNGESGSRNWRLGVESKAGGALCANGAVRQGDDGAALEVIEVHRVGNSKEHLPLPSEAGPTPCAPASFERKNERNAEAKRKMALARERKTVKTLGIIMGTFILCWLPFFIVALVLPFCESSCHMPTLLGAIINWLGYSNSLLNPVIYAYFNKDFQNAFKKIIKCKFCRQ

[3] = target: T1, 5-hydroxytryptamine receptor 1A
Melanocortin receptor 4 = Melanocortin receptor 4 (Homo sapiens, UniProt P32245)
Thromboxane A2 receptor = target: T2, Thromboxane A2 receptor (Homo sapiens, UniProt P21731)
T2 sequence (P21731 whole entry): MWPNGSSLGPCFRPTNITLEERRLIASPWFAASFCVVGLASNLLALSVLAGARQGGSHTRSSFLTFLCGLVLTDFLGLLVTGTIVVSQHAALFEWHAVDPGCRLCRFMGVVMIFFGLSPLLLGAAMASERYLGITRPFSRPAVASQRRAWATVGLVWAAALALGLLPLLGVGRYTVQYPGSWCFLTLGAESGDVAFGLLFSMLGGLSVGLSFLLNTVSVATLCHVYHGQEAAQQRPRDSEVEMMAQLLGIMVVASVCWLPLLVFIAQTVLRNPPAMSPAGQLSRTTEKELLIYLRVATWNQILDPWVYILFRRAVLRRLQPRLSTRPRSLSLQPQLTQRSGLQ

[4] = target: Glutamate receptor ionotropic, NMDA 1 (Rattus norvegicus, UniProt P35439)
D(1A) dopamine receptor = D(1A) dopamine receptor (Homo sapiens, UniProt P21728)
[5] = target: T3, Gastrin/cholecystokinin type B receptor (Homo sapiens, UniProt P32239)
T3 sequence (P32239 whole entry): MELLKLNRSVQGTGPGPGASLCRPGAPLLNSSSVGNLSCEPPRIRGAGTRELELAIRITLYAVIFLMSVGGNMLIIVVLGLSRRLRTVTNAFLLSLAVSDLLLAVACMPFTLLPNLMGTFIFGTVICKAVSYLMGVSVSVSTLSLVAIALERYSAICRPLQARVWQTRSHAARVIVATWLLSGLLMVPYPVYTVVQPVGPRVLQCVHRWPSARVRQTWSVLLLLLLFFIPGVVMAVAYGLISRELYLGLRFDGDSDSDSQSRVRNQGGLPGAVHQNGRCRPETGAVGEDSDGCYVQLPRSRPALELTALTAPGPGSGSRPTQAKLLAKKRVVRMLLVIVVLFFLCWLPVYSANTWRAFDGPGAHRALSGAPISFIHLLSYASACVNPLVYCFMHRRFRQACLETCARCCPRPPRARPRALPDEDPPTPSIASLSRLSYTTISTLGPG

Endothelin-1 receptor = target: T4, Endothelin-1 receptor (Homo sapiens, UniProt P25101)
T4 sequence (P25101 whole entry): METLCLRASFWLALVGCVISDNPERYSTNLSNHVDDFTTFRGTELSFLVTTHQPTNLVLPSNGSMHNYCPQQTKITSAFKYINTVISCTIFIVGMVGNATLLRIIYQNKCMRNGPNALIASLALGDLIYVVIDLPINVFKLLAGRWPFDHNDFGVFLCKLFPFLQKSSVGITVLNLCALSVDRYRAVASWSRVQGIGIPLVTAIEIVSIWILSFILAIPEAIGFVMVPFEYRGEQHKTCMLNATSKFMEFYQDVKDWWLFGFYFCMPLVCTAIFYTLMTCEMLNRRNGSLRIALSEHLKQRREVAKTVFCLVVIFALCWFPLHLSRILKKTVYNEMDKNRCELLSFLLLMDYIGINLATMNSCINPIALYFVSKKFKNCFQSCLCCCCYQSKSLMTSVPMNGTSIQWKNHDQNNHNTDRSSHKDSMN

B2 bradykinin receptor = target: T5, B2 bradykinin receptor (Homo sapiens, UniProt P30411)
T5 sequence (P30411 whole entry): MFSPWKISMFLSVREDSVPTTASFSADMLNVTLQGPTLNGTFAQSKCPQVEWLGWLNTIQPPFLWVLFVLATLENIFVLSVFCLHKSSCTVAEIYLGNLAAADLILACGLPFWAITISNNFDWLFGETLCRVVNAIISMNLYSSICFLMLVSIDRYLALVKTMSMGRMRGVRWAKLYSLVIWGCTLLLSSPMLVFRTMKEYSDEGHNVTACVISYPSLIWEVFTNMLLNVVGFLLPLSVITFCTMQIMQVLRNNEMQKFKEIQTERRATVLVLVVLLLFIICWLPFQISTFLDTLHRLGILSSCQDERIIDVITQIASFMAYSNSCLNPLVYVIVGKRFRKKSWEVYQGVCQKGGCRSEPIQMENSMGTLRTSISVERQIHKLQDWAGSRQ

D(3) dopamine receptor = D(3) dopamine receptor (Homo sapiens, UniProt P35462)
[6] = target: Beta-2 adrenergic receptor (Homo sapiens, UniProt P07550)
[7] = target: Muscarinic acetylcholine receptor M3 (Homo sapiens, UniProt P20309)
Histamine H1 receptor = Histamine H1 receptor (Homo sapiens, UniProt P35367)
[8] = target: Sodium-dependent serotonin transporter (Homo sapiens, UniProt P31645)
Also: assay procedure not described here.

Histamine H3 receptor, sequence (Q9Y5N1 whole entry): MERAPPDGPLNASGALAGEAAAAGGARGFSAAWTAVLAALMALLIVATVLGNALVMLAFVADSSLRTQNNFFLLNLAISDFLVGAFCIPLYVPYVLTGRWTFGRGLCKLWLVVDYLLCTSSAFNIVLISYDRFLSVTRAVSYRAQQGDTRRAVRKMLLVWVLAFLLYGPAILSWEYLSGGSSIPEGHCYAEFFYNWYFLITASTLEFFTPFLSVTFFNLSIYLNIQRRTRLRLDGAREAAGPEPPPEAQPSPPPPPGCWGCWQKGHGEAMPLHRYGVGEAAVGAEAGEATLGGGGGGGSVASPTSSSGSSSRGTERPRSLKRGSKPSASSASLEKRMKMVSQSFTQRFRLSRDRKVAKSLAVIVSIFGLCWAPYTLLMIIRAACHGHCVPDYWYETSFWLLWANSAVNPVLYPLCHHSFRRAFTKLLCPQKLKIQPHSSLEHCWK
Sodium-dependent noradrenaline transporter, sequence (P23975 whole entry): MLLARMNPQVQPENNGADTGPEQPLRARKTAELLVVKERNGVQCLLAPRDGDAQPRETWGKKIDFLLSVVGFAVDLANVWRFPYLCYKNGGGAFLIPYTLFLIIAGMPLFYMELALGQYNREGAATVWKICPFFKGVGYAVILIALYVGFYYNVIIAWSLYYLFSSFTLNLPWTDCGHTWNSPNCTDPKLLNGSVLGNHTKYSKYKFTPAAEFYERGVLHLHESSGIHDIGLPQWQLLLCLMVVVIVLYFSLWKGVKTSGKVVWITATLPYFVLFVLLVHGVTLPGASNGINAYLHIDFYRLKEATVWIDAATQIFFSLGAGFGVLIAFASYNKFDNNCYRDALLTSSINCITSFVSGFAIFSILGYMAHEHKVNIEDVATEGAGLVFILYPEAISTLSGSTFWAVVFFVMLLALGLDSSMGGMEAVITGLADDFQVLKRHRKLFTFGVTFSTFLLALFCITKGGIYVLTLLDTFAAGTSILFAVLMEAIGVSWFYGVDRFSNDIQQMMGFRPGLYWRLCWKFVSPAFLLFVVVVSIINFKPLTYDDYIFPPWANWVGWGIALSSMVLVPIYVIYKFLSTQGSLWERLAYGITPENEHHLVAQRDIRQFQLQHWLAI
Cannabinoid receptor 1, sequence (P21554 whole entry): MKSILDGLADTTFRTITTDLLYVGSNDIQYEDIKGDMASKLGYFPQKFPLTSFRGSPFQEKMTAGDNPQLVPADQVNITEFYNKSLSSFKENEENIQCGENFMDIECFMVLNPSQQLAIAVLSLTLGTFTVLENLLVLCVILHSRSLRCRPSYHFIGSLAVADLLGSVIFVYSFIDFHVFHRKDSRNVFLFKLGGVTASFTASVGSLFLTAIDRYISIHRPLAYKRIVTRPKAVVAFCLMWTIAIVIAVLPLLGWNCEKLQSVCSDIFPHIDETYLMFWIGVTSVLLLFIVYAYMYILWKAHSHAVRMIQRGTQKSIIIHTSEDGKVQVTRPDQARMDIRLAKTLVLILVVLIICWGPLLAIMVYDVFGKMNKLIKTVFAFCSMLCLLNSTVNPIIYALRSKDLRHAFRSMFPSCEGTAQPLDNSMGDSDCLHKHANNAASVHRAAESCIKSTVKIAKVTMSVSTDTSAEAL
Histamine H1 receptor, sequence (P35367 whole entry): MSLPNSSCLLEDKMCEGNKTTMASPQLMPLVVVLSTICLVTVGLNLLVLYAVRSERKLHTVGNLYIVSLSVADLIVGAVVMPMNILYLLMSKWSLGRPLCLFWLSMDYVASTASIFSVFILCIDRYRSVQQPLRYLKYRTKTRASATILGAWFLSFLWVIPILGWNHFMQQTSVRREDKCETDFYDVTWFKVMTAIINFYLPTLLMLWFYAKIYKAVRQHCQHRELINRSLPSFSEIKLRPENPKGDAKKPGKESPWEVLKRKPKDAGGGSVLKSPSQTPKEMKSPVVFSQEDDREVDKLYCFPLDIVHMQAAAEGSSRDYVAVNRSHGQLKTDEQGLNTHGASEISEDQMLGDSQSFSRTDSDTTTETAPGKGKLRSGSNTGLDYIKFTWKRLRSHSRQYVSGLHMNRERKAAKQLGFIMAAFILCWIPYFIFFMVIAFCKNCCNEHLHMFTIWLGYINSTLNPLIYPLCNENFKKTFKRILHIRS
Muscarinic acetylcholine receptor M3, sequence (P20309 whole entry): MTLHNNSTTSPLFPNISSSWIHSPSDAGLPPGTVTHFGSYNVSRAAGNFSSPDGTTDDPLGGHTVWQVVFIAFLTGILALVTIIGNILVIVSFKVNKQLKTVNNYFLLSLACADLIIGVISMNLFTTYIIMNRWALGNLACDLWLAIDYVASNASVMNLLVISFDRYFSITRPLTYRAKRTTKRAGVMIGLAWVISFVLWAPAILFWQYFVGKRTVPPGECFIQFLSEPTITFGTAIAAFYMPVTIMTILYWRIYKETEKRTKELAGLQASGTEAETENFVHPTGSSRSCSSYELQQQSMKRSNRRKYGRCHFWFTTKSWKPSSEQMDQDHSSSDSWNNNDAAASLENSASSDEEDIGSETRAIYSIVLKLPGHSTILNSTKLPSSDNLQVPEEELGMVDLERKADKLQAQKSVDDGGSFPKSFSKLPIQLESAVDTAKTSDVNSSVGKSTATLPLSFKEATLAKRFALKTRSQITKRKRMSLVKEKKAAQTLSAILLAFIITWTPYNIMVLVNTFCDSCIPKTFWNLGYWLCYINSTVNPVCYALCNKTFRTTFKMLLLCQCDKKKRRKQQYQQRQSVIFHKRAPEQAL
Melanocortin receptor 4, sequence (P32245 whole entry): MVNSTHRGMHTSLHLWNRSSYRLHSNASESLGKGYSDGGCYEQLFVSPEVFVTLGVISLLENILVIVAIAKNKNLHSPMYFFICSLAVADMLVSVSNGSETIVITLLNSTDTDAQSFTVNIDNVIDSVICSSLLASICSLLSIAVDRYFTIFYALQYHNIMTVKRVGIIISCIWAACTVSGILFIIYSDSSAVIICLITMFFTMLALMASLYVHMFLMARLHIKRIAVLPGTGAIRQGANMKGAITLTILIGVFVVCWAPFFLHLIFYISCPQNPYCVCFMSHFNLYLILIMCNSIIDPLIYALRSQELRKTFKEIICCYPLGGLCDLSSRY
D(3) dopamine receptor, sequence (P35462 whole entry): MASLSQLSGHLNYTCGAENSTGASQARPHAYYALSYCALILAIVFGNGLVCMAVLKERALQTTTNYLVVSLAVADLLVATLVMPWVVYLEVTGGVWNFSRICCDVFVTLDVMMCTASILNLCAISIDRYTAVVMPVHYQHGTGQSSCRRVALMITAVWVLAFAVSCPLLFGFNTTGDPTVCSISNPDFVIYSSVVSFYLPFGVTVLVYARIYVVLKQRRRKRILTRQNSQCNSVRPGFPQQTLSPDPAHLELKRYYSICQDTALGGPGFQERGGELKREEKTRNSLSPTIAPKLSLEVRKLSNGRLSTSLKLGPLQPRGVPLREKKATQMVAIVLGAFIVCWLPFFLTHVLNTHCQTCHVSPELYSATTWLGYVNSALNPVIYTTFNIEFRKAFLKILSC
Beta-2 adrenergic receptor, sequence (P07550 whole entry): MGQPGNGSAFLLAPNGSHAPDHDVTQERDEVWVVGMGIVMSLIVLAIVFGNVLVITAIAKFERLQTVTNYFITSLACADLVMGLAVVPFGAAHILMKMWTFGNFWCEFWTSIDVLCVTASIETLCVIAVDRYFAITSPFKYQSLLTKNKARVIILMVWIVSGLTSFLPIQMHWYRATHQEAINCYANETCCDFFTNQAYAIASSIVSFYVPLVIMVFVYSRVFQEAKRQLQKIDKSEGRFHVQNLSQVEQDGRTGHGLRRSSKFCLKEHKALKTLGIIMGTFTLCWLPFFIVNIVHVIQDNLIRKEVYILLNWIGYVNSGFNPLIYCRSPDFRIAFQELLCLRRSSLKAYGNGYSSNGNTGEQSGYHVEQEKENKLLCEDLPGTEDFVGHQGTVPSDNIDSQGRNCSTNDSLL
D(1A) dopamine receptor, sequence (P21728 whole entry): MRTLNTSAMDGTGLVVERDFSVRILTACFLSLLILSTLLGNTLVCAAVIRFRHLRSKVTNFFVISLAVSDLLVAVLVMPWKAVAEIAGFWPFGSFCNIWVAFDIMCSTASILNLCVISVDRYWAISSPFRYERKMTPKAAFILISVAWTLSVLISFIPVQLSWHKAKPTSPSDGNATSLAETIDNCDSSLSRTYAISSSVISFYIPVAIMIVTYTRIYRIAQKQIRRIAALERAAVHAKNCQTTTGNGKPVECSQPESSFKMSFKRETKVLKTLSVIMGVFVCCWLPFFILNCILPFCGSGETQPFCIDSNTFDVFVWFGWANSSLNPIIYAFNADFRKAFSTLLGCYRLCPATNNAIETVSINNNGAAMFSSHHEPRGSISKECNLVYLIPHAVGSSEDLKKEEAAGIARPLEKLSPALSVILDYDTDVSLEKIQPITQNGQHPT
Sodium-dependent serotonin transporter, sequence (P31645 whole entry): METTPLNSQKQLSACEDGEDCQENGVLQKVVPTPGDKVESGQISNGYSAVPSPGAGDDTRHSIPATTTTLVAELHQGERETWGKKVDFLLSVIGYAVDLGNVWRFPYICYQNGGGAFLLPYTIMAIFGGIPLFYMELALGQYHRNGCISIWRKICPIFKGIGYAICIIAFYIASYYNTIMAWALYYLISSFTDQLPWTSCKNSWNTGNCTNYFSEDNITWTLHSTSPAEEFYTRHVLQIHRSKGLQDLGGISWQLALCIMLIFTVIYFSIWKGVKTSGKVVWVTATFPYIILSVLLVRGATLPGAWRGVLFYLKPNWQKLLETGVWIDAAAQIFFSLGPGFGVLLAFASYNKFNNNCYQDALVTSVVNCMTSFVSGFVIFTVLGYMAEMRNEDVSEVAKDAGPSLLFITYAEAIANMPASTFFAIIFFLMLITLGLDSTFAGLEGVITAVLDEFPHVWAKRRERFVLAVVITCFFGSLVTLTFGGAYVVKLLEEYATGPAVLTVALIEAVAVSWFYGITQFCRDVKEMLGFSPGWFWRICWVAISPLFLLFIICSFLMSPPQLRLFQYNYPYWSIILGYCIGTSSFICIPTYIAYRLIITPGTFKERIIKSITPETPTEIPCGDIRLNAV

Row | Structure (SMILES) | AC50 [1] [µM] | AC50 (Cannabinoid receptor 1) [µM] | AC50 (Histamine H3 receptor) [µM] | AC50 [2] [µM] | AC50 [3] [µM] | AC50 (Melanocortin receptor 4) [µM] | AC50 (Thromboxane A2 receptor) [µM] | AC50 [4] [µM] | AC50 (D(1A) dopamine receptor) [µM] | AC50 [5] [µM] | AC50 (Endothelin-1 receptor) [µM] | AC50 (B2 bradykinin receptor) [µM] | AC50 (D(3) dopamine receptor) [µM] | AC50 [6] [µM] | AC50 [7] [µM] | AC50 (Histamine H1 receptor) [µM] | AC50 [8] [µM]
1 | CC[C@H]1OC(=O)[C@H](C)[C@@H](O[C@H]2C[C@@](C)(OC)[C@@H](O)[C@H](C)O2)[C@H](C)[C@@H](O[C@@H]2O[C@H](C)C[C@H](N(C)C)[C@H]2O)[C@](C)(O)C[C@@H](C)CN(C)[C@H](C)[C@@H](O)[C@]1(C)O [AZITHROMYCIN] | > 30 | > 10 | > 30 | > 10 | > 30 | > 30 | > 30 | > 10 | > 30 | > 30 | > 30 | > 30 | > 30 | – | – | – | –
2 | NCC(CC(=O)O)c1ccc(Cl)cc1 (stereo unspecified) [BACLOFEN] | > 30 | > 10 | > 30 | > 30 | > 30 | > 30 | > 30 | > 10 | > 30 | > 30 | > 30 | > 30 | 14.7 | > 10 | – | – | –
3 | CC(C)C[C@H]1C(=O)N2CCC[C@H]2[C@]2(O)O[C@](NC(=O)[C@@H]3C=C4c5cccc6[nH]c(Br)c(c56)C[C@H]4N(C)C3)(C(C)C)C(=O)N12 [BROMOCRIPTINE] | > 30 | > 10 | > 30 | 0.17 | 0.003 | > 30 | > 30 | > 10 | 2.37 | > 30 | > 30 | > 30 | – | 8.4 | – | – | –
4 | O=C1Nc2ccc(Cl)cc2[C@@](C#CC2CC2)(C(F)(F)F)O1 [EFAVIRENZ] | – | 20.7 | – | > 10 | – | > 30 | > 30 | > 10 | – | 45 | > 30 | > 30 | – | > 30 | > 30 | > 30 | –
5 | CC1(C)NC(=O)N(c2ccc([N+](=O)[O-])c(C(F)(F)F)c2)C1=O [NILUTAMIDE] | > 30 | > 30 | > 30 | > 30 | > 30 | > 30 | > 30 | > 30 | > 30 | > 30 | – | > 30 | > 30 | > 30 | > 30 | > 30 | > 30
6 | CS(=O)(=O)c1ccc(C2=C(c3ccccc3)C(=O)OC2)cc1 [ROFECOXIB] | > 30 | > 10 | > 30 | 35 | > 30 | 24.1 | > 30 | > 10 | > 30 | > 30 | > 30 | > 30 | > 30 | > 10 | – | – | –
7 | CO[C@H]1C[C@@H]2CC[C@@H](C)[C@@](O)(O2)C(=O)C(=O)N2CCCC[C@H]2C(=O)O[C@H]([C@H](C)C[C@@H]2CC[C@@H](O)[C@H](OC)C2)CC(=O)[C@H](C)/C=C(\C)[C@@H](O)[C@@H](OC)C(=O)[C@H](C)C[C@H](C)/C=C/C=C/C=C/1C [SIROLIMUS] | > 30 | > 10 | > 30 | > 10 | > 30 | > 30 | > 30 | > 10 | > 30 | > 30 | > 30 | > 30 | > 30 | > 10 | – | – | –
8 | Cc1cn([C@H]2C=C[C@@H](CO)O2)c(=O)[nH]c1=O [STAVUDINE] | > 30 | > 10 | > 30 | > 10 | > 30 | > 30 | > 30 | > 10 | > 30 | > 30 | > 30 | > 30 | > 30 | > 10 | – | – | –
9 | Cn1nnc2c(C(N)=O)ncn2c1=O [TEMOZOLOMIDE] | – | > 10 | – | > 30 | – | > 30 | > 30 | > 10 | – | > 30 | > 30 | > 30 | – | > 10 | > 30 | > 30 | –
10 | Clc1ccc2nsnc2c1NC1=NCCN1 [TIZANIDINE] | – | > 10 | – | > 10 | – | > 30 | > 30 | > 10 | – | > 30 | > 30 | > 30 | – | > 10 | > 10 | > 10 | –
